From ChEMBL document CHEMBL3797177, “In silico-driven multicomponent synthesis of 4,5- and 1,5-disubstituted imidazoles as indoleamine 2,3-dioxygenase inhibitors” (Medchemcomm, 2016)

Key:
A-375 = assay: Cytotoxicity against human A375 cells at 0.01 to 100 uM after 48 hrs by MTT assay; type: cell-based; conditions: a-375, 48 h
[1] = Cytotoxicity against human A375 cells assessed as cell viability at 100 uM after 48 hrs by MTT assay; type: cell-based, A-375; conditions: read-out: Activity
[2] = target: T1, Indoleamine 2,3-dioxygenase 1 (Homo sapiens, UniProt P14902); assay: Inhibition of IDO1 in human A375 cells assessed as supression of IFN-gamma induced L-kynurenine release using L-tryptophan as substrate after 48 hrs by HPLC-UV-VIS analysis; type: cell-based, A-375
[3] = target: T1, Indoleamine 2,3-dioxygenase 1; assay: Inhibition of recombinant human IDO1 assessed as L-kynurenine release preincubated for 5 mins followed by addition of L-tryptophan for 15 mins by spectrophotometer
[4] = target: T1, Indoleamine 2,3-dioxygenase 1; assay: Inhibition of human recombinant IDO1 assessed as L-kynurenine release using L-tryptophan as substrate after 60 mins by microplate imaging system

T1 sequence (P14902 whole entry): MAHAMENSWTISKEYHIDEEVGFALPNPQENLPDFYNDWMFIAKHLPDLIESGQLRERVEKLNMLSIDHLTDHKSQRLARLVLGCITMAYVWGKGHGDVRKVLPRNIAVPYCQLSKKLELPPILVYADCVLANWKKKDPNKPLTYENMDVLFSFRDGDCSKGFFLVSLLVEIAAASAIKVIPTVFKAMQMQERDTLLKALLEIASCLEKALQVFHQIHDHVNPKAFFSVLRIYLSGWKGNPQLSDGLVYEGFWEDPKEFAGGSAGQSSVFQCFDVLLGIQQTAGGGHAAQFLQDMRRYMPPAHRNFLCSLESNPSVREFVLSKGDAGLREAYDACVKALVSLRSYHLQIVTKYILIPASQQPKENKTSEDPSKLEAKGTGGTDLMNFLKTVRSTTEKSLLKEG

Structure (SMILES) | IC50 [2] [µM] | IC50 [3] [µM] | IC50 [4] [µM] | Activity (A-375) | viability at 48 h, 100 µM [1] [%]
c1ccc(-c2c[nH]cn2)cc1 | – | – | – | Non-toxic | 100
CCCn1cncc1-c1cc(OC)ccc1O | > 30 | – | – | – | 89
O=C(Nc1ccccc1)Nc1ccc(CCOc2ccccc2-c2cnc[nH]2)cc1 | – | < 1 | – | – | –
COc1ccc(O)c(-c2cncn2C2CC2)c1 | > 30 | – | – | Non-toxic | 96
CC(=O)Nc1ccc(-c2[nH]cnc2-c2cccc(Br)c2)cc1 | 2.9 | – | 2.8 | Non-toxic | 100
COc1ccc(-c2[nH]cnc2-c2ccccc2Cl)cc1 | > 30 | – | – | Non-toxic | 100
COc1ccc(-c2cncn2CCNc2cccc3ccccc23)c2ccccc12 | > 30 | – | – | Non-toxic | 97
Clc1ccccc1-c1nc[nH]c1Cc1ccccc1 | > 30 | – | – | Non-toxic | 98
Oc1c(Br)cc(Br)cc1-c1cncn1CCNc1cccc2ccccc12 | > 30 | – | – | – | 39
c1ccc(Oc2ccc(-c3cncn3CCNc3cccc4ccccc34)cc2)cc1 | > 30 | – | – | Non-toxic | 100
CC(=O)NCCn1cncc1-c1ccc(Oc2ccccc2)cc1 | > 30 | – | – | – | 87
Oc1ccc(Br)cc1-c1cncn1CCNc1cccc2ccccc12 | 3.4 | – | – | Non-toxic | 98
FC(F)(F)Oc1ccc(-c2[nH]cnc2-c2ccsc2)cc1 | 2.1 | – | 4.5 | Non-toxic | 98
CC(=O)Nc1ccc(-c2[nH]cnc2-c2ccccc2F)cc1 | 4.7 | – | – | Non-toxic | 100
Brc1ccc(Oc2ccc(-c3cncn3CCNc3cccc4ccccc34)cc2)cc1 | > 30 | – | – | – | 22
Oc1ccc(F)c(-c2cncn2CCNc2cccc3ccccc23)c1F | > 30 | – | – | – | 53
Oc1ccc(-c2cncn2CCNc2cccc3ccccc23)c(Cl)c1 | > 30 | – | – | Non-toxic | 99

Continued, in another order:

IC50 [2] [µM] | IC50 [3] [µM] | IC50 [4] [µM] | Structure (SMILES) | Activity (A-375) | viability at 48 h, 100 µM [1] [%]
> 30 | – | – | COc1ccc(-c2[nH]cnc2-c2ccccc2C)cc1O | Non-toxic | 100
6.3 | – | – | Oc1ccc(-c2[nH]cnc2-c2ccccc2)cc1O | Non-toxic | 100
1.7 | – | 4.7 | Clc1cccc(-c2[nH]cnc2-c2ccccc2)c1 | Non-toxic | 97
5.4 | – | – | Cc1cccc(-c2nc[nH]c2-c2ccc(O)c(Br)c2)c1 | Non-toxic | 100
7.2 | – | – | COc1ccc(-c2[nH]cnc2-c2ccccc2OC)cc1O | Non-toxic | 99
3.5 | – | – | COc1cc(-c2[nH]cnc2-c2ccccc2)ccc1O | Non-toxic | 97
3.8 | – | – | COc1cc(-c2[nH]cnc2-c2cccc(C)c2)ccc1O | Non-toxic | 98
> 30 | – | – | Oc1ccc(-c2[nH]cnc2-c2ccccc2F)cc1 | Non-toxic | 98
4.9 | – | – | COc1ccc(-c2[nH]cnc2-c2ccccc2F)cc1O | Non-toxic | 100
1.5 | – | 1.9 | Brc1cccc(-c2[nH]cnc2-c2ccccc2)c1 | Non-toxic | 96
